Laboratory results: US11208412B2 (DAEGU-GYEONGBUK MEDICAL INNOVATION FOUNDATION, priority 2017, dated 2021)

Columns and labels:
[1] = molecular target: T1, kinases of the scanMAX Kinase assay panel (Homo sapiens, UniProt Q13873); assay: Kinase selectivity, DiscoverX scanMAX Kinase assay panel (% control); format: binding; details: BMPR2; 1 uM
T1 construct: purchased DiscoverX Co. (contract measurement) scanMAX Kinase assay panel
T1 sequence (Q13873 27-1038): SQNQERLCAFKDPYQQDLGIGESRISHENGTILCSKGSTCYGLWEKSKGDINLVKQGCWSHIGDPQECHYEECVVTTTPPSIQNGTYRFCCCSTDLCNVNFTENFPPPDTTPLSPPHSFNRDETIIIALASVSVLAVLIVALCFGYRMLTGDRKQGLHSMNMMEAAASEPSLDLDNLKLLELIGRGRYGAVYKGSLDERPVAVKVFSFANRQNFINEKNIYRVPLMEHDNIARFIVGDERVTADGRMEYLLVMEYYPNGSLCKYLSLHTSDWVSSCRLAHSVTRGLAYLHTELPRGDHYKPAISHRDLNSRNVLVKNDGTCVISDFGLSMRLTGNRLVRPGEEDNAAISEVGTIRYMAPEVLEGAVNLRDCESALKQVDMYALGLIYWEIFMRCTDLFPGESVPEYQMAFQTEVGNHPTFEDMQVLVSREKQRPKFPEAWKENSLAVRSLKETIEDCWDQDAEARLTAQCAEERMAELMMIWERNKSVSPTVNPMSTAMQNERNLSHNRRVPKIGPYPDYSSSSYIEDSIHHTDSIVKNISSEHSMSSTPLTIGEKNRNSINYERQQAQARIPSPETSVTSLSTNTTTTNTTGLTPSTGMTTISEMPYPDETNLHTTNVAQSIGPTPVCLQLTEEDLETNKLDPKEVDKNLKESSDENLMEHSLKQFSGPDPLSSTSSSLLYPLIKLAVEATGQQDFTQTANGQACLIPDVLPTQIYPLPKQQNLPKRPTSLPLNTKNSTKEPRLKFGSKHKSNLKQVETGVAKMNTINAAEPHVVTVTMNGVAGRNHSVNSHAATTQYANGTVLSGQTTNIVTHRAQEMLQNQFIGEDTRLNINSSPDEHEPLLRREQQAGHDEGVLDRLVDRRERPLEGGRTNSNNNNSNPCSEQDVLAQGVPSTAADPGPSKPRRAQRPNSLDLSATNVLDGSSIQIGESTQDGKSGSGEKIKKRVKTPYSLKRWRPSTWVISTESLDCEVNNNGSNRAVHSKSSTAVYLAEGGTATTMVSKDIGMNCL
In short: (§1)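 Binding-panel profiling at one concentration, 1 uM in DMSO; values are % of DMSO control after subtracting the positive-control floor. Less than 35% means activity on that kinase.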

[2] = molecular target: T2, kinases of the scanMAX Kinase assay panel (Homo sapiens, UniProt Q9UF33); assay: as above; format: binding; details: EPHA6; 1 uM
T2 construct: purchased DiscoverX Co. (contract measurement) scanMAX Kinase assay panel
T2 sequence (Q9UF33 23-1036): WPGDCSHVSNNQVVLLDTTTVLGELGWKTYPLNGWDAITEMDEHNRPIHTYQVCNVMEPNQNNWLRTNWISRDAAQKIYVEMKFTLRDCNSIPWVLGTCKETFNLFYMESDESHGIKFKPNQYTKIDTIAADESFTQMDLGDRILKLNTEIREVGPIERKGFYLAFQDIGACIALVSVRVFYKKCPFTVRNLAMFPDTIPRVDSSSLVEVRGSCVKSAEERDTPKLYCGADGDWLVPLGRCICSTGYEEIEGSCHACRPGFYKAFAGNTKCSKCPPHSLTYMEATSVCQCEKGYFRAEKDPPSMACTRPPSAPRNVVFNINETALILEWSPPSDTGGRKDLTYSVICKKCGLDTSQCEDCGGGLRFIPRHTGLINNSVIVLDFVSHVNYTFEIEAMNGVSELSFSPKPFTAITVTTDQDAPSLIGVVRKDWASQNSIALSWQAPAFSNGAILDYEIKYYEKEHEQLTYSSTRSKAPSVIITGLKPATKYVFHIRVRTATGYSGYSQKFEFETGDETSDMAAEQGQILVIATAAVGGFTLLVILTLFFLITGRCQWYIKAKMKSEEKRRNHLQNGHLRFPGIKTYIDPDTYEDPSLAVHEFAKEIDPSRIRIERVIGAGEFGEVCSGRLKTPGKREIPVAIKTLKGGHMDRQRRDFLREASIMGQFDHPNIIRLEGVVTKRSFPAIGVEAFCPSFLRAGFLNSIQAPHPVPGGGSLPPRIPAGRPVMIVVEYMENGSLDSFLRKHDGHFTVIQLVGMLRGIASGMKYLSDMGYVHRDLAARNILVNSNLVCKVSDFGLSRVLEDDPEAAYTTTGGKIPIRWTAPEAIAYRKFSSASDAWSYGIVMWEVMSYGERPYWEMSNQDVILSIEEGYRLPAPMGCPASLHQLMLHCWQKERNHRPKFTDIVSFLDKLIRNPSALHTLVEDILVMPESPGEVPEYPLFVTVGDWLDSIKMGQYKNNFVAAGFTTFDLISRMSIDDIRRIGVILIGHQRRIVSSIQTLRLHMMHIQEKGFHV
In short: as §1

Compound | remaining binding at 1 µM [1] | remaining binding at 1 µM [2]
CNc1nc(Nc2ccc(C(=O)N3CCOCC3)cc2OC)nc2[nH]cc(C#N)c12 [Example 1, 2-((2-methoxy-4-(morpholine-4-carbonyl)phenyl)amino)-4-(methylamino)-7H-pyrrolo[2,3-d]pyrimidine-5-carbonitrile] | 79% | 93%
CC1(Nc2nc(Nc3cnn([C@H]4CCN(C5COC5)C[C@@H]4F)c3Cl)nc3[nH]cc(C#N)c23)CC1 [Example 52, 2-((5-chloro-1-((3S,4S)-3-fluoro-1-(oxetane-3-yl)piperidine-4-yl)-1H-pyrazole-4-yl)amino)((1-methylcyclopropyl)amino)-7H-pyrrolo[2,3-d]pyrimidine-5-carbonitrile] | 0.65% | 43%
CCNc1nc(Nc2ccc(C(=O)N3CCC(N4CCOCC4)CC3)cc2OC)nc2[nH]cc(C(F)(F)F)c12 [Example 104, (4-((4-(ethylamino)-5-(trifluoromethyl)-7H-pyrrolo[2,3-d]pyrimidine-2-yl)amino)-3-methoxyphenyl)(4-morpholinopiperidine-1-yl)methanone] | 100% | 100%
